“And” between values parts separate entries of the source, which are not always exact repeats. Identical values can stand only once.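 Assay format: 96-well plates, 48-hour exposure. At the GI50, growth is halved. TGI marks complete inhibition of growth.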
What was measured:
Assay in all cases: NCI-60 cell line screen, 48 h
SNB-19 CNS = tested on: SNB-19 CNS
SW-620 colon = tested on: SW-620 colon
CAKI-1 renal = tested on: CAKI-1 renal
MCF7 breast = tested on: MCF7 breast
KM12 colon = tested on: KM12 colon
OVCAR-3 ovarian = tested on: OVCAR-3 ovarian
OVCAR-8 ovarian = tested on: OVCAR-8 ovarian
HOP-92 NSCLC = tested on: HOP-92 NSCLC
A498 renal = tested on: A498 renal
NCI-H460 lung = tested on: NCI-H460 lung

Row | SMILES | GI50 (SNB-19 CNS) | TGI (SNB-19 CNS) | GI50 (SW-620 colon) | TGI (SW-620 colon) | GI50 (CAKI-1 renal) | TGI (CAKI-1 renal) | GI50 (MCF7 breast) | TGI (MCF7 breast) | GI50 (KM12 colon) | TGI (KM12 colon) | GI50 (OVCAR-3 ovarian) | TGI (OVCAR-3 ovarian) | GI50 (OVCAR-8 ovarian) | TGI (OVCAR-8 ovarian) | GI50 (HOP-92 NSCLC) | TGI (HOP-92 NSCLC) | GI50 (A498 renal) | TGI (A498 renal) | GI50 (NCI-H460 lung) | TGI (NCI-H460 lung)
1 | C[C@H](c1ccc(Cl)cc1[N+](=O)[O-])N1C(=O)c2cc(I)ccc2NC(=O)[C@H]1c1ccc(Cl)cc1 | > 100 µM | > 100 µM | > 100 µM | > 100 µM | 4.2 µM | > 100 µM | 6.53 µM | > 100 µM | > 100 µM | > 100 µM | 8.83 µM | > 100 µM | > 100 µM | > 100 µM | 2.79 µM | > 100 µM | > 100 µM | > 100 µM | 6.61 µM | > 100 µM
2 | CN(C)c1ccc(/C=N/NC(=O)c2cnc3ccccc3c2)cc1 |  | > 100 µM |  | > 100 µM |  | > 100 µM |  | > 100 µM |  | > 100 µM |  | > 100 µM |  | > 100 µM |  | > 100 µM |  | > 100 µM |  | > 100 µM
3 | O=C1CC2OCC=C3CN4CCC56c7ccccc7N1C5C2C3CC46 (stereo not drawn) (tested in a mixture with another compound) | > 50 µg/mL | > 50 µg/mL | > 50 µg/mL | > 50 µg/mL | > 50 µg/mL | > 50 µg/mL | > 50 µg/mL | > 50 µg/mL | > 50 µg/mL | > 50 µg/mL | > 50 µg/mL | > 50 µg/mL | > 50 µg/mL | > 50 µg/mL | > 50 µg/mL | > 50 µg/mL | > 50 µg/mL | > 50 µg/mL | > 50 µg/mL | > 50 µg/mL
4 | CCCC(CCC)C(=O)O | > 20000 µM | > 20000 µM | > 100 µM | > 20000 µM | > 100 µM | > 20000 µM | > 100 µM | > 20000 µM | > 100 µM | > 20000 µM | > 100 µM | > 20000 µM | > 100 µM | > 20000 µM | > 100 µM | > 20000 µM | > 100 µM | > 100 µM and 4830 µM | > 100 µM | > 20000 µM
5 | COc1cc2c3c(n(CCCN4CCN(CCO)CC4)c(=O)c2cc1OC)-c1cc2c(cc1C3=O)OCO2 | 14.3 µM | > 65.7 µM | 8.37 µM | 24.7 µM | 6.53 µM | 42.2 µM | 0.873 µM | 17.5 µM | 9.33 µM | 22.7 µM | 13.2 µM | 28.3 µM | 7.62 µM | 28.3 µM | > 21.2 µM | > 100 µM | 18.2 µM | 81.6 µM | 0.972 µM | 18.4 µM
6 | O=C1/C(=C/c2cccc(F)c2)CN(C(=O)C(Cl)Cl)C/C1=C\c1cccc(F)c1 | 0.204 µM | 0.604 µM | 0.0325 µM | 0.125 µM | 0.389 µM | 1.44 µM | 0.0405 µM | 0.241 µM | 0.172 µM | 0.476 µM | 0.19 µM | 0.41 µM | 0.184 µM | 1.13 µM | 0.499 µM | 1.44 µM | 0.628 µM | 2.05 µM | 0.318 µM | 1.09 µM
7 | CC1SC(c2cccc(Cl)c2)N(NC(=O)C(O)c2ccccc2)C1=O (stereo not drawn) | > 100 µM | > 100 µM | > 100 µM | > 100 µM | > 100 µM | > 100 µM | > 100 µM | > 100 µM | > 100 µM | > 100 µM | > 100 µM | > 100 µM | > 100 µM | > 100 µM | > 100 µM | > 100 µM | > 100 µM | > 100 µM | > 100 µM | > 100 µM
8 | COC(=O)CCc1c(/C=C2\N=C(c3ccc[nH]3)C=C2OC)[nH]c(C)c1C(=O)OCc1ccccc1 | 1.17 µM | > 100 µM | 0.304 µM | 3.03 µM | 0.272 µM | 1.59 µM | 0.313 µM | 4.78 µM | 0.29 µM | 4.98 µM | 0.34 µM | 1.64 µM | 0.432 µM | 5.75 µM | 0.197 µM | 0.73 µM | 0.289 µM | 3.37 µM | 0.958 µM | > 61.9 µM
9 | COc1ccc(OC)c(/C=C/C(=O)c2ccc3cc(OC)ccc3c2)c1 |  | > 17.2 µM |  | > 50 µM | 1.2 µM | 10.6 µM | 11.4 µM | > 50 µM | 3.02 µM | 11.2 µM | 1.64 µM | 11.9 µM |  | > 11.9 µM | 12.4 µM | > 50 µM | 12.2 µM | > 31.9 µM | 10.3 µM | > 50 µM
10 | CC1(C)N=C(N)N=C(N)N1c1ccc(CCC(=O)Nc2cccc(S(=O)(=O)F)c2)cc1 | 7.37 µM | > 100 µM | 5.87 µM | > 100 µM | > 100 µM | > 100 µM | 6.48 µM | > 100 µM | 10.6 µM | > 100 µM | 54.1 µM | > 100 µM | 6.46 µM | > 100 µM | > 100 µM | > 100 µM | 20.1 µM | > 100 µM | 3.04 µM | > 100 µM
11 | Nc1ncnc2c1ncn2C1OC(C(=O)OCCO)C(O)C1O (stereo not drawn) |  | > 100 µM |  | > 100 µM |  | > 100 µM |  | > 100 µM |  | > 100 µM |  | > 100 µM |  | > 100 µM |  | > 100 µM |  | > 100 µM |  | > 100 µM
12 | Cn1c(=O)c2[nH]cnc2n(C)c1=O.[CH2-]C(Cc1cccc2cc(C(=O)O)c(=O)oc12)OC.[Hg+2].[OH-] (stereo not drawn) | 17.7 µM | 31.6 µM | 10.8 µM | 28.7 µM | 18 µM | 32 µM | 16.6 µM | 33 µM | 17.3 µM | 32 µM | 17.3 µM | 32.8 µM | 18 µM | 32 µM | 15.6 µM | 29.9 µM | 18.7 µM | 33 µM |  | 
13 | O=C(Nc1ccc(N2CCNCC2)cn1)c1[nH]ncc1Nc1ncnc2sc3c(c12)CCC3 |  |  | 0.476 µM | 2.05 µM | 1.4 µM | 3.26 µM | 1.68 µM | 4.2 µM | 2.38 µM | 6.12 µM | 1.84 µM | 3.62 µM | 2.17 µM | 5 µM | 4.69 µM | > 100 µM | 5.06 µM | 24.6 µM | 1.58 µM | 3.48 µM
